This assay deals with MDM2 (Homo sapiens, UniProt Q00987). As to the kind of experiment: MDM2 binding screen of Libraries 3 and 4: displacement of fluorescent probe F-M8 at 750 nM macrocycle. In short, it runs like this: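 Competition with nutlin-3a was run using the fluorescein conjugate. Library members came from scaffolds reacted 6 h at room temperature with carboxylic acids (20 equiv.), HBTU and DABCO in DMSO. Quenching was overnight in Tris-Cl pH 7.4 buffer with 0.01% Tween20.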

[1] abbreviates: Panel b, Library 3: 63 scaffolds combinatorially acylated with 15 carboxylic acids at 30 picomole scale, displacement of fluorescent peptide probe, macrocycle 750 nM.
The mark [2] stands for this setting: Panel c, Library 4: best nine scaffolds and 15 additional carboxylic acids, displacement of fluorescent probe.

Chain of MDM2 (Q00987 whole entry): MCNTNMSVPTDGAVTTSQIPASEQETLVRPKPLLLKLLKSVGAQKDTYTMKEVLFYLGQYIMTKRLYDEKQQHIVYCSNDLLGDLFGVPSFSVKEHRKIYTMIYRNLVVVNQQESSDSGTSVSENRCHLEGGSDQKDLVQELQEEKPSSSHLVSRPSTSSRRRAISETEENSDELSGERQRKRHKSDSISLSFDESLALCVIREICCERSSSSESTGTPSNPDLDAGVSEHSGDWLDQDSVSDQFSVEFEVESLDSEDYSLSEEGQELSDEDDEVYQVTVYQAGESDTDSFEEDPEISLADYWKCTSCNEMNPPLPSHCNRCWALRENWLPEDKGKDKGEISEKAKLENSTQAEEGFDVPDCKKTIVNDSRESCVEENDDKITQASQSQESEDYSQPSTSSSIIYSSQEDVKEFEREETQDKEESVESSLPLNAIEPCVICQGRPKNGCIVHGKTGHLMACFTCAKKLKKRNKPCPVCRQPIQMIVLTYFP

`CC(Oc1cccc(Cl)c1)C(=O)NCC1NC(=O)C2(CC2)CNC(=O)CCSSCCNC(=O)C(Cc2c[nH]c3cc(Cl)ccc23)NC1=O` (mixture of isomers) [X-Amcp-Dap-Cl-Trp + Acid 113]: the “fraction of fluorescent probe displaced” value under setting [1] is reported as -0.019.
On the same count and under the same terms, the same measure for `O=C1CCSSCCNC(=O)[C@H](Cc2c[nH]c3cc(Cl)ccc23)NC(=O)[C@H](CNC(=O)c2ccc3ccccc3c2)NC(=O)C2(CC2)CN1` [X-Amcp-Dap-Cl-Trp + Acid 107]: 0.00455.
As for `O=C(NC[C@@H]1NC(=O)[C@H]2CCCN(C2)C(=O)CCSSCCNC(=O)[C@H](Cc2cccc3ccccc23)NC1=O)c1cnc2ccccc2n1` [X-Nip-Dap-1-NaI + Acid 130], the “fraction of fluorescent probe displaced” value under setting [2] is given as 0.020.
As for `O=C(NC[C@H]1NC(=O)[C@H]2CCCN(C2)C(=O)CCSSCCNC(=O)[C@H](Cc2c[nH]c3cc(Cl)ccc23)NC1=O)c1ccc2ccccc2c1` [X-Nip-D-Dap-Cl-Trp + Acid 107], the “fraction of fluorescent probe displaced” value under setting [1] amounted to 0.024.
As for `O=C(CCS(=O)(=O)c1ccccc1)NC[C@@H]1NC(=O)[C@@H]2CN(CCO2)C(=O)CCSSCCNC(=O)[C@H](Cc2cccc3ccccc23)NC1=O` [X-Cop-Dap-1-NaI + Acid 114], the “fraction of fluorescent probe displaced” value under setting [1] stood at 0.021.
On the same count and under the same terms, the same measure for `CC(Oc1cccc(Cl)c1)C(=O)NCC1NC(=O)C2(CC2)CNC(=O)CCSSCCNC(=O)C(Cc2cn(C)c3ccccc23)NC1=O` (mixture of isomers) [X-Amcp-Dap-Me-Trp + Acid 113]: 0.008; for `O=C(/C=C/c1ccc(OCc2ccccc2)cc1)NC[C@@H]1NC(=O)C2(CC2)CNC(=O)CCSSCCNC(=O)[C@H](Cc2ccc3ccccc3c2)NC1=O` [X-Amcp-Dap-2-Nal + Acid 110]: 0.041.
`O=C(/C=C/c1ccc2ccccc2c1)NC[C@@H]1NC(=O)C2(CC2)CNC(=O)CCSSCCNC(=O)[C@H](Cc2c[nH]c3cc(Cl)ccc23)NC1=O` [X-Amcp-Dap-Cl-Trp + Acid 112]: the “fraction of fluorescent probe displaced” value under setting [1] stood at 0.008.
Still for that read-out and setting: then `CC(Oc1cccc(Cl)c1)C(=O)NCCN1CC(=O)NC(Cc2c[nH]c3cc(Cl)ccc23)C(=O)NCCSSCCC(=O)NCC2(CC2)C1=O` (mixture of isomers) [X-Amcp-N-Aeg-Cl-Trp + Acid 113], with -0.019.
`O=C(/C=C/c1ccc2ccccc2c1)NC[C@@H]1NC(=O)C2(CC2)CNC(=O)CCSSCCNC(=O)[C@H](Cc2ccc3ccccc3c2)NC1=O` [X-Amcp-Dap-2-Nal + Acid 112]: the “fraction of fluorescent probe displaced” value under setting [1] is given as 0.015.
Take `CN1C(=O)CN(CCNC(=O)/C=C/c2ccc(OCc3ccccc3)cc2)C(=O)C2(CC2)CNC(=O)CCSSCCNC(=O)[C@@H]1Cc1c[nH]c2ccccc12` [X-Amcp-N-Aeg-NMe-Trp + Acid 110]: the “fraction of fluorescent probe displaced” value under setting [1] is listed as -0.00533.
In the case of `CN1C(=O)[C@@H](CNC(=O)/C=C/c2ccc(Cl)cc2)NC(=O)[C@@H]2CN(CCO2)C(=O)CCSSCCNC(=O)[C@@H]1Cc1c[nH]c2ccccc12` [X-Cop-D-Dap-NMe-Trp + Acid 108], the “fraction of fluorescent probe displaced” value under setting [1] came to 0.008.
Regarding `O=C(NCC1NC(=O)C2CN(CCO2)C(=O)CCSSCCNC(=O)C(Cc2ccc3ccccc3c2)NC1=O)c1ccc2ccccc2c1` [X-Cop-D-Dap-2-Nal + Acid 107], the “fraction of fluorescent probe displaced” value under setting [1] turned out to be 0.00455.
For `O=C(NC[C@@H]1NC(=O)[C@H]2CCCN(C2)C(=O)CCSSCCNC(=O)[C@H](Cc2c[nH]c3cc(Cl)ccc23)NC1=O)c1cnc2ccccc2n1` [X-Nip-Dap-Cl-Trp + Acid 130], the “fraction of fluorescent probe displaced” value under setting [2] was determined as 0.044.
`O=C(/C=C/c1ccc(OCc2ccccc2)cc1)NC[C@@H]1NC(=O)C2(CC2)CNC(=O)CCSSCCNC(=O)[C@H](Cc2cccc3ccccc23)NC1=O` [X-Amcp-Dap-1-NaI + Acid 110]: the “fraction of fluorescent probe displaced” value under setting [1] was 0.00133.
Turning to `Cn1cc(C[C@@H]2NC(=O)[C@H](CNC(=O)C3COc4ccccc4O3)NC(=O)[C@@H]3CN(CCO3)C(=O)CCSSCCNC2=O)c2ccccc21` (stereo partly drawn) [X-Cop-Dap-Me-Trp + Acid 115], the “fraction of fluorescent probe displaced” value under setting [1] is 0.015.
Take `O=C(/C=C/c1ccc(Cl)cc1)NC[C@H]1NC(=O)C2(CC2)CNC(=O)CCSSCCNC(=O)[C@H](Cc2cccc3ccccc23)NC1=O` [X-Amcp-D-Dap-1-NaI + Acid 108]: under setting [1], the “fraction of fluorescent probe displaced” value is given as 0.021.
As to `O=C(NC[C@@H]1NC(=O)[C@H]2CCCN(C2)C(=O)CCSSCCNC(=O)[C@H](Cc2c[nH]c3ccccc23)NC1=O)c1ccc2ccccc2c1` [X-Nip-Dap-Trp + Acid 107], under setting [1], the “fraction of fluorescent probe displaced” value turned out to be 0.440.
Still for that read-out and setting: the same measure for `O=C(NC[C@@H]1NC(=O)[C@H]2CCCN(C2)C(=O)CCSSCCNC(=O)[C@H](Cc2c[nH]c3cc(Cl)ccc23)NC1=O)c1ccc(Cl)s1` [X-Nip-Dap-Cl-Trp + Acid 14]: 0.181; for `CC(Oc1cccc(Cl)c1)C(=O)NCC1NC(=O)C2(CC2)CNC(=O)CCSSCCNC(=O)C(Cc2ccc3ccccc3c2)NC1=O` (mixture of isomers) [X-Amcp-D-Dap-2-Nal + Acid 113]: -0.00533.
Same read-out and setting: the same measure for `O=C1CCSSCCNC(=O)[C@H](Cc2c[nH]c3ccccc23)NC(=O)[C@@H](CNC(=O)c2cccc(Oc3ccccc3)c2)NC(=O)C2(CC2)CN1` [X-Amcp-D-Dap-Trp + Acid 111]: 0.008; for `O=C1CCSSCCNC(=O)[C@H](Cc2c[nH]c3ccccc23)NC(=O)[C@H](CNC(=O)c2ccc(Cl)s2)NC(=O)C2(CC2)CN1` [X-Amcp-Dap-Trp + Acid 14]: 0.008.
On the same count and under the same terms, then `O=C(NC[C@H]1NC(=O)[C@@H]2CN(CCO2)C(=O)CCSSCCNC(=O)[C@H](Cc2ccc3ccccc3c2)NC1=O)c1ccc(Cl)cc1` [X-Cop-D-Dap-2-Nal + Acid 25], with 0.00133; and `Cn1cc(C[C@@H]2NC(=O)[C@@H](CNC(=O)/C=C/c3ccc(Cl)cc3)NC(=O)[C@@H]3CN(CCO3)C(=O)CCSSCCNC2=O)c2ccccc21` [X-Cop-D-Dap-Me-Trp + Acid 108], with 0.021; and `O=C(O)/C=C/c1ccncc1` [Acid 106], with 0.00455.
As for `O=C(/C=C/c1ccc(OCc2ccccc2)cc1)NC[C@H]1NC(=O)C2(CC2)CNC(=O)CCSSCCNC(=O)[C@H](Cc2c[nH]c3cc(Cl)ccc23)NC1=O` [X-Amcp-D-Dap-Cl-Trp + Acid 110], the “fraction of fluorescent probe displaced” value under setting [1] amounted to 0.008.
As to `O=C(/C=C/c1ccc2ccccc2c1)NC[C@H]1NC(=O)[C@H]2CCCN(C2)C(=O)CCSSCCNC(=O)[C@H](Cc2c[nH]c3ccccc23)NC1=O` [X-Nip-D-Dap-Trp + Acid 112], the “fraction of fluorescent probe displaced” value under setting [1] was -0.012.
As to `O=C(NC[C@@H]1NC(=O)[C@@H]2CN(CCO2)C(=O)CCSSCCNC(=O)[C@@H](Cc2c[nH]c3ccccc23)NC1=O)c1ccc(Cl)cc1` [X-Cop-Dap-D-Trp + Acid 25], under setting [1], the “fraction of fluorescent probe displaced” value is listed as -0.012.
For the compound `CCOc1ccc(C=CC(=O)NCC2NC(=O)C3CN(CCO3)C(=O)CCSSCCNC(=O)C(Cc3c[nH]c4ccccc34)NC2=O)cc1` (stereo not drawn) [X-Cop-Dap-Trp + Acid 117], the “fraction of fluorescent probe displaced” value under setting [2] was determined as 0.199.
With `CC(Oc1cccc(Cl)c1)C(=O)NCC1NC(=O)C2CCCN(C2)C(=O)CCSSCCNC(=O)C(Cc2ccc3ccccc3c2)NC1=O` (mixture of isomers) [X-Nip-D-Dap-2-Nal + Acid 113], the “fraction of fluorescent probe displaced” value under setting [1] is -0.012.
As to `O=C(O)/C=C/c1cccc(Cl)c1` [Acid 121], the “fraction of fluorescent probe displaced” value under setting [2] is -0.00464.
`O=C(/C=C/c1ccc(Cl)c(Cl)c1)NC[C@@H]1NC(=O)[C@H]2CCCN(C2)C(=O)CCSSCCNC(=O)[C@H](Cc2c[nH]c3cc(Cl)ccc23)NC1=O` [X-Nip-Dap-Cl-Trp + Acid 119]: the “fraction of fluorescent probe displaced” value under setting [2] worked out at 0.134.
On to `O=C(CCS(=O)(=O)c1ccccc1)NC[C@H]1NC(=O)C2(CC2)CNC(=O)CCSSCCNC(=O)[C@H](Cc2cccc3ccccc23)NC1=O` [X-Amcp-D-Dap-1-NaI + Acid 114], for which the “fraction of fluorescent probe displaced” value under setting [1] was found to be 0.028.
Still for that read-out and setting: the same measure for `CN1C(=O)[C@@H](CNC(=O)/C=C/c2ccc3ccccc3c2)NC(=O)[C@@H]2CN(CCO2)C(=O)CCSSCCNC(=O)[C@@H]1Cc1c[nH]c2ccccc12` [X-Cop-D-Dap-NMe-Trp + Acid 112]: 0.035; for `CN1C(=O)CN(CCNC(=O)c2cccc(Oc3ccccc3)c2)C(=O)[C@H]2CCCN(C2)C(=O)CCSSCCNC(=O)[C@@H]1Cc1c[nH]c2ccccc12` [X-Nip-N-Aeg-NMe-Trp + Acid 111]: -0.012.
On to `O=C1CN(CCNC(=O)c2ccc(Cl)s2)C(=O)C2CN(CCO2)C(=O)CCSSCCNC(=O)C(Cc2ccc3ccccc3c2)N1` (centres unmarked) [X-Cop-N-Aeg-2-Nal + Acid 14], for which, under setting [1], the “fraction of fluorescent probe displaced” value is -0.019.
On the same count and under the same terms, then `CN1C(=O)CN(CCNC(=O)/C=C/c2ccc(Cl)cc2)C(=O)[C@H]2CCCN(C2)C(=O)CCSSCCNC(=O)[C@@H]1Cc1c[nH]c2ccccc12` [X-Nip-N-Aeg-NMe-Trp + Acid 108], with 0.028.
In the case of `O=C1CCSSCCNC(=O)[C@H](Cc2ccc3ccccc3c2)NC(=O)[C@H](CNC(=O)C2CC2c2ccccc2)NC(=O)C2(CC2)CN1` (some centres unmarked) [X-Amcp-Dap-2-Nal + Acid 105], the “fraction of fluorescent probe displaced” value under setting [1] is on record as -0.034.
Still for that read-out and setting: the same measure for `O=C(/C=C/c1ccc(Cl)cc1)NC[C@H]1NC(=O)[C@H]2CCCN(C2)C(=O)CCSSCCNC(=O)[C@H](Cc2ccc3ccccc3c2)NC1=O` [X-Nip-D-Dap-2-Nal + Acid 108]: 0.021; for `O=C1CN(CCNC(=O)C2CC2c2ccccc2)C(=O)C2CN(CCO2)C(=O)CCSSCCNC(=O)C(Cc2ccc3ccccc3c2)N1` (centres unmarked) [X-Cop-N-Aeg-2-Nal + Acid 105]: -0.015.
On to `Cn1cc(C[C@@H]2NC(=O)[C@@H](CNC(=O)c3cccc(Oc4ccccc4)c3)NC(=O)[C@H]3CCCN(C3)C(=O)CCSSCCNC2=O)c2ccccc21` [X-Nip-D-Dap-Me-Trp + Acid 111], for which the “fraction of fluorescent probe displaced” value under setting [1] is on record as 0.048.
